Experimental data from US20250051277A1, “DELIVERY OF THERAPEUTIC ALKALOID COMPOUNDS” (Sensorium Therapeutics, Inc., priority 2021, published 2025).
Where two headings read alike, the source gives them in different places.

Experiments:
[1] = assay type: physicochemical; settings: SGF with pepsin, pH 1.5, 37° C., 0.5 mM
[2] = assay type: physicochemical; settings: DI water, 25° C., 0.5 mM

COc1ccc([C@@]23CCC(=NNC(C)=O)C[C@@H]2N(C)CC3)cc1OC [Compound 222, N-[[(3aS,7aS)-3a-(3,4-dimethoxyphenyl)-1-methyl-2,3,4,5,7,7a-hexahydroindol-6-ylidene]amino]acetamide]
Condition 1 Conversion (%) ([1]; time 1 min): 100% | Condition 1 Conversion (%) ([1]; time 5 min): 100% | Condition 1 Conversion (%) ([1]; time 30 min): 100% | Condition 1 Conversion (%) ([1]; time 1 h): 100% | Condition 1 Conversion (%) ([1]; time 4 h): 100% | Condition 1 Conversion (%) ([1]; time 24 h): 100% | Condition 2 Conversion (%) ([2]; time 1 min): 10% | Condition 2 Conversion (%) ([2]; time 5 min): 20% | Condition 2 Conversion (%) ([2]; time 30 min): 50% | Condition 2 Conversion (%) ([2]; time 1 h): 100% | Condition 2 Conversion (%) ([2]; time 4 h): 100% | Condition 2 Conversion (%) ([2]; time 24 h): 100%

COc1ccc([C@@]23CCC(=NNC(=O)COc4ccccc4)C[C@@H]2N(C)CC3)cc1OC [Compound 223, N-[[(3aS,7aS)-3a-(3,4-dimethoxyphenyl)-1-methyl-2,3,4,5,7,7a-hexahydroindol-6-ylidene]amino]-2-phenoxy-acetamide]
Condition 1 Conversion (%) ([1]; time 1 min): 100% | Condition 1 Conversion (%) ([1]; time 5 min): 100% | Condition 1 Conversion (%) ([1]; time 30 min): 100% | Condition 1 Conversion (%) ([1]; time 1 h): 100% | Condition 1 Conversion (%) ([1]; time 4 h): 100% | Condition 1 Conversion (%) ([1]; time 24 h): 100% | Condition 2 Conversion (%) ([2]; time 1 min): 9.8% | Condition 2 Conversion (%) ([2]; time 5 min): 10.4% | Condition 2 Conversion (%) ([2]; time 30 min): 13.5% | Condition 2 Conversion (%) ([2]; time 1 h): 18.5% | Condition 2 Conversion (%) ([2]; time 4 h): 50.1% | Condition 2 Conversion (%) ([2]; time 24 h): 81.3%

COc1ccc([C@@]23CCC(=NOCCOc4ccccc4)C[C@@H]2N(C)CC3)cc1OC [Compound 234, (3aS,7aS)-3a-(3,4-dimethoxyphenyl)-1-methyl-N-(2-phenoxyethoxy)-2,3,4,5,7,7a-hexahydroindol-6-imine]
Condition 1 Conversion (%) ([1]; time 1 min): 0% | Condition 1 Conversion (%) ([1]; time 5 min): 0% | Condition 1 Conversion (%) ([1]; time 30 min): 0% | Condition 1 Conversion (%) ([1]; time 1 h): 0% | Condition 1 Conversion (%) ([1]; time 4 h): 2.16% | Condition 1 Conversion (%) ([1]; time 24 h): 2.63% | Condition 2 Conversion (%) ([2]; time 1 min): 0% | Condition 2 Conversion (%) ([2]; time 5 min): 0% | Condition 2 Conversion (%) ([2]; time 30 min): 0% | Condition 2 Conversion (%) ([2]; time 1 h): 0% | Condition 2 Conversion (%) ([2]; time 4 h): 0% | Condition 2 Conversion (%) ([2]; time 24 h): 0%

COc1ccc([C@@]23CCC(=NNC(=O)c4ccc(Cl)cc4)C[C@@H]2N(C)CC3)cc1OC [Compound 240, N-[[(3aS,7aS)-3a-(3,4-dimethoxyphenyl)-1-methyl-2,3,4,5,7,7a-hexahydroindol-6-ylidene]amino]-4-chloro-benzamide]
Condition 1 Conversion (%) ([1]; time 1 min): 84% | Condition 1 Conversion (%) ([1]; time 5 min): 100% | Condition 1 Conversion (%) ([1]; time 30 min): 100% | Condition 1 Conversion (%) ([1]; time 1 h): 100% | Condition 1 Conversion (%) ([1]; time 4 h): 100% | Condition 1 Conversion (%) ([1]; time 24 h): 100% | Condition 2 Conversion (%) ([2]; time 1 min): 35.7% | Condition 2 Conversion (%) ([2]; time 5 min): 30% | Condition 2 Conversion (%) ([2]; time 30 min): 40.5% | Condition 2 Conversion (%) ([2]; time 1 h): 43.3% | Condition 2 Conversion (%) ([2]; time 4 h): 54.2% | Condition 2 Conversion (%) ([2]; time 24 h): 100%

COc1ccc([C@@]23CCC(=NNC(=O)C(=O)O)C[C@@H]2N(C)CC3)cc1OC [Compound 241, 2-[2-[(3aS,7aS)-3a-(3,4-dimethoxyphenyl)-1-methyl-2,3,4,5,7,7a-hexahydroindol-6-ylidene]hydrazino]-2-oxo-acetic acid]
Condition 1 Conversion (%) ([1]; time 1 min): 100% | Condition 1 Conversion (%) ([1]; time 5 min): 100% | Condition 1 Conversion (%) ([1]; time 30 min): 100% | Condition 1 Conversion (%) ([1]; time 1 h): 100% | Condition 1 Conversion (%) ([1]; time 4 h): 100% | Condition 1 Conversion (%) ([1]; time 24 h): 100% | Condition 2 Conversion (%) ([2]; time 1 min): 0% | Condition 2 Conversion (%) ([2]; time 5 min): 28% | Condition 2 Conversion (%) ([2]; time 30 min): 30% | Condition 2 Conversion (%) ([2]; time 1 h): 52% | Condition 2 Conversion (%) ([2]; time 4 h): 86% | Condition 2 Conversion (%) ([2]; time 24 h): 100%

COc1ccc([C@@]23CCC(=NNC(=O)CC(CC(=O)O)CC(C)C)C[C@@H]2N(C)CC3)cc1OC (stereo partly drawn) [Compound 242, 3-[2-[2-[(3aS,7aS)-3a-(3,4-dimethoxyphenyl)-1-methyl-2,3,4,5,7,7a-hexahydroindol-6-ylidene]hydrazino]-2-oxo-ethyl]-5-methyl-hexanoic acid]
Condition 1 Conversion (%) ([1]; time 1 min): 75.01% | Condition 1 Conversion (%) ([1]; time 5 min): 95.02% | Condition 1 Conversion (%) ([1]; time 30 min): 96.13% | Condition 1 Conversion (%) ([1]; time 1 h): 97.72% | Condition 1 Conversion (%) ([1]; time 4 h): 98.02% | Condition 1 Conversion (%) ([1]; time 24 h): 98.34% | Condition 2 Conversion (%) ([2]; time 1 min): 33.46% | Condition 2 Conversion (%) ([2]; time 5 min): 36.51% | Condition 2 Conversion (%) ([2]; time 30 min): 38.53% | Condition 2 Conversion (%) ([2]; time 1 h): 40.8% | Condition 2 Conversion (%) ([2]; time 4 h): 55.46% | Condition 2 Conversion (%) ([2]; time 24 h): 55.7%

COc1ccc([C@@]23CC/C(=N\NC(=O)C4(C(=O)O)CC4)C[C@@H]2N(C)CC3)cc1OC [Compound 243, 1-[[[(3aS,7aS)-3a-(3,4-dimethoxyphenyl)-1-methyl-2,3,4,5,7,7a-hexahydroindol-6-ylidene]amino]carbamoyl]cyclopropanecarboxylic acid]
Condition 1 Conversion (%) ([1]; time 1 min): 80.17% | Condition 1 Conversion (%) ([1]; time 5 min): 100% | Condition 1 Conversion (%) ([1]; time 30 min): 100% | Condition 1 Conversion (%) ([1]; time 1 h): 100% | Condition 1 Conversion (%) ([1]; time 4 h): 100% | Condition 1 Conversion (%) ([1]; time 24 h): 100% | Condition 2 Conversion (%) ([2]; time 1 min): 0% | Condition 2 Conversion (%) ([2]; time 5 min): 0% | Condition 2 Conversion (%) ([2]; time 30 min): 0% | Condition 2 Conversion (%) ([2]; time 1 h): 0% | Condition 2 Conversion (%) ([2]; time 4 h): 27.04% | Condition 2 Conversion (%) ([2]; time 24 h): 46.78%

COc1ccc([C@@]23CC/C(=N\NC(=O)c4ccccc4C(=O)O)C[C@@H]2N(C)CC3)cc1OC [Compound 244, 2-[[[(3aS,7aS)-3a-(3,4-dimethoxyphenyl)-1-methyl-2,3,4,5,7,7a-hexahydroindol-6-ylidene]amino]carbamoyl]benzoic acid]
Condition 1 Conversion (%) ([1]; time 1 min): 33.93% | Condition 1 Conversion (%) ([1]; time 5 min): 100% | Condition 1 Conversion (%) ([1]; time 30 min): 100% | Condition 1 Conversion (%) ([1]; time 1 h): 100% | Condition 1 Conversion (%) ([1]; time 4 h): 100% | Condition 1 Conversion (%) ([1]; time 24 h): 100% | Condition 2 Conversion (%) ([2]; time 1 min): 0% | Condition 2 Conversion (%) ([2]; time 5 min): 0% | Condition 2 Conversion (%) ([2]; time 30 min): 4.08% | Condition 2 Conversion (%) ([2]; time 1 h): 15.25% | Condition 2 Conversion (%) ([2]; time 4 h): 24.59% | Condition 2 Conversion (%) ([2]; time 24 h): 66.56%

COc1ccc([C@@]23CC/C(=N\NC(=O)CCC(=O)O)C[C@@H]2N(C)CC3)cc1OC [Compound 245, 4-[2-[(3aS,7aS)-3a-(3,4-dimethoxyphenyl)-1-methyl-2,3,4,5,7,7a-hexahydroindol-6-ylidene]hydrazino]-4-oxo-butanoic acid]
Condition 1 Conversion (%) ([1]; time 1 min): 60% | Condition 1 Conversion (%) ([1]; time 5 min): 100% | Condition 1 Conversion (%) ([1]; time 30 min): 100% | Condition 1 Conversion (%) ([1]; time 1 h): 100% | Condition 1 Conversion (%) ([1]; time 4 h): 100% | Condition 1 Conversion (%) ([1]; time 24 h): 100% | Condition 2 Conversion (%) ([2]; time 1 min): 25% | Condition 2 Conversion (%) ([2]; time 5 min): 35% | Condition 2 Conversion (%) ([2]; time 30 min): 50% | Condition 2 Conversion (%) ([2]; time 1 h): 100% | Condition 2 Conversion (%) ([2]; time 4 h): 100% | Condition 2 Conversion (%) ([2]; time 24 h): 100%

COc1ccc([C@@]23CC/C(=N\NC(=O)Nc4ccccc4Cl)C[C@@H]2N(C)CC3)cc1OC [Compound 249, 1-[(E)-[(3aS,7aS)-3a-(3,4-dimethoxyphenyl)-1-methyl-2,3,4,5,7,7a-hexahydroindol-6-ylidene]amino]-3-(2-chlorophenyl)urea]
Condition 1 Conversion (%) ([1]; time 1 min): 0% | Condition 1 Conversion (%) ([1]; time 5 min): 70.48% | Condition 1 Conversion (%) ([1]; time 30 min): 96.4% | Condition 1 Conversion (%) ([1]; time 1 h): 96.5% | Condition 1 Conversion (%) ([1]; time 4 h): 96.72% | Condition 1 Conversion (%) ([1]; time 24 h): 96.8% | Condition 2 Conversion (%) ([2]; time 1 min): 0% | Condition 2 Conversion (%) ([2]; time 5 min): 0% | Condition 2 Conversion (%) ([2]; time 30 min): 0% | Condition 2 Conversion (%) ([2]; time 1 h): 0% | Condition 2 Conversion (%) ([2]; time 4 h): 9.23% | Condition 2 Conversion (%) ([2]; time 24 h): 24.65%

COc1ccc([C@@]23CCC(=NNC(=O)Nc4cccc(O)c4)C[C@@H]2N(C)CC3)cc1OC [Compound 251, 2-[(3aS,7aS)-3a-(3,4-dimethoxyphenyl)-1-methyloctahydro-6H-indol-6-ylidene)-N-(3-hydroxyphenyl)hydrazine-1-carboxamide]
Condition 1 Conversion (%) ([1]; time 1 min): 6.91% | Condition 1 Conversion (%) ([1]; time 5 min): 100% | Condition 1 Conversion (%) ([1]; time 30 min): 100% | Condition 1 Conversion (%) ([1]; time 1 h): 100% | Condition 1 Conversion (%) ([1]; time 4 h): 100% | Condition 1 Conversion (%) ([1]; time 24 h): 100% | Condition 2 Conversion (%) ([2]; time 1 min): 0% | Condition 2 Conversion (%) ([2]; time 5 min): 0% | Condition 2 Conversion (%) ([2]; time 30 min): 0% | Condition 2 Conversion (%) ([2]; time 1 h): 0% | Condition 2 Conversion (%) ([2]; time 4 h): 0% | Condition 2 Conversion (%) ([2]; time 24 h): 15.18%

COc1ccc(NC(=O)NN=C2CC[C@@]3(c4ccc(OC)c(OC)c4)CCN(C)[C@H]3C2)cc1 [Compound 254, 1-[[(3aS,7aS)-3a-(3,4-dimethoxyphenyl)-1-methyl-2,3,4,5,7,7a-hexahydroindol-6-ylidene]amino]-3-(4-methoxyphenyl)urea]
Condition 1 Conversion (%) ([1]; time 1 min): 0% | Condition 1 Conversion (%) ([1]; time 5 min): 2.4% | Condition 1 Conversion (%) ([1]; time 30 min): 84.7% | Condition 1 Conversion (%) ([1]; time 1 h): 91.9% | Condition 1 Conversion (%) ([1]; time 4 h): 91.9% | Condition 1 Conversion (%) ([1]; time 24 h): 92% | Condition 2 Conversion (%) ([2]; time 1 min): 0% | Condition 2 Conversion (%) ([2]; time 5 min): 0% | Condition 2 Conversion (%) ([2]; time 30 min): 0% | Condition 2 Conversion (%) ([2]; time 1 h): 1.1% | Condition 2 Conversion (%) ([2]; time 4 h): 16.2% | Condition 2 Conversion (%) ([2]; time 24 h): 17.6%

COc1ccc([C@@]23CCC(=NNC(=O)Nc4ccc(S(C)(=O)=O)cc4)C[C@@H]2N(C)CC3)cc1OC [Compound 255, 1-[[(3aS,7aS)-3a-(3,4-dimethoxyphenyl)-1-methyl-2,3,4,5,7,7a-hexahydroindol-6-ylidene]amino]-3-(4-methylsulfonylphenyl)urea]
Condition 1 Conversion (%) ([1]; time 1 min): 20.9% | Condition 1 Conversion (%) ([1]; time 5 min): 65.2% | Condition 1 Conversion (%) ([1]; time 30 min): 88.6% | Condition 1 Conversion (%) ([1]; time 1 h): 89.8% | Condition 1 Conversion (%) ([1]; time 4 h): 88.1% | Condition 1 Conversion (%) ([1]; time 24 h): 88% | Condition 2 Conversion (%) ([2]; time 1 min): 0% | Condition 2 Conversion (%) ([2]; time 5 min): 0% | Condition 2 Conversion (%) ([2]; time 30 min): 0% | Condition 2 Conversion (%) ([2]; time 1 h): 2.4% | Condition 2 Conversion (%) ([2]; time 4 h): 8.4% | Condition 2 Conversion (%) ([2]; time 24 h): 6%
